Results published in patent US20250115581A1, “SUBSTITUTED PIPERIDINES AS CK1A DEGRADERS” (Monte Rosa Therapeutics, Inc., priority 2022, published 2025).

How the values were obtained:
CK1α [1] = target: T1, CK1α (Homo sapiens, UniProt P48729+Q96SW2); experiment: Western blot of CK1α levels in HEK293 cell line; type: cell-based; conditions: cereblon present, 0.1, 1, 10 μM, 24 hours
T1 construct: HEK293 clonal lines with CRISPR KI HiBiT tag on CSNK1A1; host or cells: HEK293 clonal line, CRISPR knock-in HiBiT at the CSNK1A1 locus, stably expressing LgBiT
T1 sequence (P48729 whole entry): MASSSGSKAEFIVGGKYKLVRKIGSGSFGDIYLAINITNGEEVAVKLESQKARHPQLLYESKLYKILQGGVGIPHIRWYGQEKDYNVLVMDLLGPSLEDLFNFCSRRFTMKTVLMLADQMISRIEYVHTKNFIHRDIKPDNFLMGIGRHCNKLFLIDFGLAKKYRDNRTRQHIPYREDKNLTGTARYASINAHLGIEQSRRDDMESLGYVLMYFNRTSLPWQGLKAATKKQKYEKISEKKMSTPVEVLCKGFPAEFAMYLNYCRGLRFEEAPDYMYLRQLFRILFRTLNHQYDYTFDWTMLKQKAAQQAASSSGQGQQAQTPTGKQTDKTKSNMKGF
T1 sequence (Q96SW2 whole entry): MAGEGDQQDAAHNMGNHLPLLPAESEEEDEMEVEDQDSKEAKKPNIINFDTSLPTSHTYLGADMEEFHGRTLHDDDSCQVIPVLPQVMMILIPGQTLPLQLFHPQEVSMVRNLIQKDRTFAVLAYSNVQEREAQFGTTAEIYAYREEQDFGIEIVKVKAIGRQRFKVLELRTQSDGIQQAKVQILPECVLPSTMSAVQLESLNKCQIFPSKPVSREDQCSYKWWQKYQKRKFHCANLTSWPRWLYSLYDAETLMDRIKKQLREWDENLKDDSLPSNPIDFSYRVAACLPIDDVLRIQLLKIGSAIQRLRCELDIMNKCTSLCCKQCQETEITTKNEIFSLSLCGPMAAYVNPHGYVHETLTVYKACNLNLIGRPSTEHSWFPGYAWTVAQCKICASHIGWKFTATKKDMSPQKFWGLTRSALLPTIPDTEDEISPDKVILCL
T1 sequence (Q16531 whole entry partner): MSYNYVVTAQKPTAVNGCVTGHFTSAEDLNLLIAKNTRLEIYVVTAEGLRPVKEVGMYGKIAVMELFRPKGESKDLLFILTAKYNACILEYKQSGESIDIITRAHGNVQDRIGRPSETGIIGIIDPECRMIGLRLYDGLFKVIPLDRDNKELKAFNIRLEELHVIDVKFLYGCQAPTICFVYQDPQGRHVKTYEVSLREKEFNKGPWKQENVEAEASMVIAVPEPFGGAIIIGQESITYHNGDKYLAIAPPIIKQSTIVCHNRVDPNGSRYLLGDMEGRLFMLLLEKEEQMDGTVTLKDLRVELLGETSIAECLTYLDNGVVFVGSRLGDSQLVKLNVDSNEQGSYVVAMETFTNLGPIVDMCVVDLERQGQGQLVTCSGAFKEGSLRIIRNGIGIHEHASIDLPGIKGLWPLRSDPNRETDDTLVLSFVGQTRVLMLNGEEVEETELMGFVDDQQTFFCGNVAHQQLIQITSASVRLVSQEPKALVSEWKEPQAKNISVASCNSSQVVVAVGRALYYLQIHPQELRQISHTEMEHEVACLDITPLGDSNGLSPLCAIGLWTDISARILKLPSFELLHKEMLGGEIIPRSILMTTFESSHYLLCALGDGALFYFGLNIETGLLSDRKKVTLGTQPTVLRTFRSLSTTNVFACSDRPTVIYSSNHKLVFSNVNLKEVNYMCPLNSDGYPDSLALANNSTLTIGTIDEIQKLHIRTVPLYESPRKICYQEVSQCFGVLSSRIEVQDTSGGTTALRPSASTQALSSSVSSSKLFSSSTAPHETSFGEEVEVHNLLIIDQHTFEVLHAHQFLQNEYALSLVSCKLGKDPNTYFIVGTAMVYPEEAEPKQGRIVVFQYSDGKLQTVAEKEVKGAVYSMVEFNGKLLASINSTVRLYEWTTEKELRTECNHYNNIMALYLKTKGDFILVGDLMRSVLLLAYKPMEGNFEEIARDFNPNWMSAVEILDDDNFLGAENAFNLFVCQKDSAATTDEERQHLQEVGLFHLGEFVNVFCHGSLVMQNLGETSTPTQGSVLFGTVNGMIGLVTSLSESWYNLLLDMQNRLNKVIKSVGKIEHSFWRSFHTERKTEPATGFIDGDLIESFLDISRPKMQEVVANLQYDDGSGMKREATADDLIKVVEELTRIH
Description: (§1) FIG. 1 depicts effects of compound 101 on CK1α levels in an HEK293 cell line in comparison to effects of compound 101 on CK1α levels in a cereblon (CRBN) knock-out HEK293 cell line.
(§2) HEK293 cell line is purchased from ATCC (CRL-1573). HEK293 CRBN knock out (k/o) cell line (B2) is generated internally using CRISPR/Cas9 method and clonally expanded. Cells are plated at 2×10^5 cells per well in 6-well tissue culture plates (VWR) in 2 ml of DMEM media (Gibco) containing 10% FBS (Gibco), and incubated for 16 hours at 37° C., 5% CO2. Compounds are added to final concentration of 0.1 μM, 1 μM, 10 μM (DMSO concentration is kept constant at 0.1%), following incubation at 37° C., 5% CO2 for additional 24 hours. Cell lysis is performed using RIPA buffer (Pierce) containing Halt™ Protease Inhibitor Cocktail (ThermoFisher Scientific). Lysates are boiled at 95° C. for 10 minutes and 12 μg of protein lysate per sample is resolved by SDS-PAGE using 12% gels (BioRad) and transferred to nitrocellulose membrane (BioRad). Membranes are blocked using LI-COR blocking buffer (LI-COR) at room temperature for 1 hour, followed by overnight incubation with rabbit anti-CK1α (Abcam ab206652), rabbit anti-CRBN (Sigma HPA045910) and mouse anti-α-tubulin (Sigma T9026) antibodies at 4° C. Secondary antibodies (LI-COR) are added for a hour at room temperature, followed by imaging with LI-COR imaging system Odyssey® CLx.

CK1α [2] = target: T1, CK1α; experiment: Western blot of CK1α levels in cereblon (CRBN) knock-out HEK293 cell line; type: cell-based; conditions: 0.1, 1, 10 μM, 24 hours
Description: as §1, §2

effect on CK1α levels (Western blot, FIG. 1) (CK1α [1]): decreases CK1α levels
effect on CK1α levels (Western blot, FIG. 1) (CK1α [2]): no effect on CK1α levels
Compound: O=C1CCC(N2Cc3cc(N4CCN(c5ccccc5)C4=O)ccc3C2=O)C(=O)N1 (centres unmarked) [Compound 101, 3-(1-oxo-5-(2-oxo-3-phenylimidazolidin-1-yl)isoindolin-2-yl)piperidine-2,6-dione]
